Read-outs that look alike come from different tables or passages of the source.
Assays:
[1] = Bioactivation studies in rat liver S9 fraction; assay type: in vitro ADME; details: rat liver S9 1 mg/mL; for remaining at 1 h, 5 µM: Sprague-Dawley, rat, liver S9 fraction, read-out: SP-8356 (% Remaining at 60 min)
Method: SP-8356 was incubated with 1 mg/mL rat liver S9 fraction in 0.1 M potassium phosphate buffer (pH 7.4) in the absence and presence of GSH, AA, NADPH, UDPGA, PAPS and SAM. The final reaction mixture contained 5 µM SP-8356, 8 mM MgCl2, 25 µg/mL alamethicin and 1 mM cofactor in final volume of 160 µL. The reaction was initiated by adding a 10 mM cofactor solution prepared in 0.1 M potassium phosphate buffer (pH 7.4), following a 5 min preincubation of the incubation mixture at 37 °C. The final study groups were as follows: no cofactor (control), AA, NADPH, GSH, GSH + AA, GSH + NADPH and GSH + UDPGA + PAPS + SAM. The reaction was quenched at (0 and 60) min by adding 160 µL of ice-cold acetonitrile containing HSDH (1 µg/mL). Following a brief vortexing and sonication, the mixtures were centrifuged at 3,000 rpm at 4 °C for 20 min. The supernatant mixed with the same volume of deionized water on an Agilent 96-well plate was analyzed by Agilent 6530 Q-TOF LC-MS/MS system equipped with dual AJS ESI ion source and Agilent 1200 series HPLC system, as follows.
Chromatographic separation was performed on a Phenomenex Kinetex C18 column (50 mm × 2.1 mm, 2.6 µm) (USA) with 0.1 vol.% formic acid in deionized water (A) and 0.1 vol.% formic acid in acetonitrile (B) running at 0.45 mL/min in the following gradient elution: 2 vol.% B for the initial 2 min, linear gradient to 95 vol.% B for 1 min and maintaining 95 vol.% B for 5 min. The injection volume was 5 μL and the column temperature was set at 50 °C. The ion source and mass analyzer parameters of the mass spectrometer were the same as in Section 4.4. LC-MS chromatograms and mass spectra were extracted using Agilent MassHunter Qualitative Analysis software (version B.05.00) (Santa Clara, CA, USA).

[2] = Metabolic stability in human liver S9 fraction; assay type: in vitro ADME; details: for t1/2 / half-life at 1 µM: 1 μM
Method: The metabolic stability of SP-8356 was investigated using rat, dog and human liver S9 fractions fortified with cofactors for major drug metabolism. The final reaction mixture contained 1 mg/mL rat, dog or human liver S9 fraction, 1 mM cofactors (NADPH, UDPGA, PAPS, SAM and GSH), 2 mM MgCl2, 25 µg/mL alamethicin and 1 µM SP-8356 in final volume of 200 µL. The metabolic reactions were initiated by adding 10 mM cofactor solution to reaction mixtures preincubated for 5 min at 37 °C. The reactions were terminated at (0, 5, 15, 30 and 60) min by the addition of 200 µL ice-cold acetonitrile containing HSDH (1 µg/mL). The subsequent sample preparation and analytical methods were the same as those described in Section 4.5.
The degradation t1/2 of SP-8356 was calculated using the following Equation:(1) t1/2=0.693/k, where, k was the first-order rate constant calculated by one phase decay nonlinear regression using GraphPad Prism™ 7 (GraphPad Software, La Jolla, CA, USA). CLint was calculated using the following Equation:(2) CLint=k/fu,S9· mL incubation/mg liver S9· mg S9/g liver·g liver/kg body wt.
The scaling factors were (136, 120.7 and 120.7) mg S9 protein/g liver and (40, 32 and 26) g liver/kg body weight for rats, dogs and humans, respectively. For simplicity, the fraction unbound in S9 incubation (fu, S9) was assumed to be one. CLH was predicted using the hepatic well-stirred model, as follows:(3) CLH=QH·fu·CLint/QH+fu·CLint, where, QH was the hepatic blood flow of (55, 30 and 20) mL/min/kg for rats, dogs and humans, respectively. The fraction unbound (fu) was assumed to be one. EH was calculated using the following Equation:(4) EH=CLH/QH.

[3] = parameters: method as in PMID 31036845; details: mice, intraperitoneal administration ref 10; cited from earlier work

remaining at 1 h, 5 µM ([1]; pH 7.4, cofactors: AA (1 mM)): 106 ± 2.6%
remaining at 1 h, 5 µM ([1]; pH 7.4, cofactors: GSH (1 mM)): 29.1 ± 6.9%
remaining at 1 h, 5 µM ([1]; pH 7.4, cofactors: GSH + AA): 92.1 ± 1.7%
remaining at 1 h, 5 µM ([1]; pH 7.4, cofactors: GSH + NADPH): 18 ± 1.9%
remaining at 1 h, 5 µM ([1]; pH 7.4, cofactors: GSH + UDPGA + PAPS + SAM): 1.3 ± 0.2%
remaining at 1 h, 5 µM ([1]; pH 7.4, cofactors: NADPH (1 mM)): 21.6 ± 2%
remaining at 1 h, 5 µM ([1]; pH 7.4, cofactors: None): ~20%
SP-8356 (% Remaining at 60 min) ([1]; cofactors: None, 5 μM): 20.3 ± 1.9%
t1/2 ([2]; human liver S9, +Cofactors (NADPH, UDPGA, PAPS, SAM, GSH)): 2.1 min
t1/2 ([2]; human liver S9, −Cofactors): 24.1 min
CLH ([2]; human, +Cofactors, predicted by well-stirred model): 19.6 mL/min/kg
half-life at 1 µM ([2]; human, liver S9 fraction, human liver S9, +Cofactors (NADPH, UDPGA, PAPS, SAM, GSH)): < 3 min
half-life at 1 µM ([2]; human, liver S9 fraction, human liver S9, −Cofactors): < 30 min
CLint scaled at 1 µM ([2]; liver S9 fraction, human liver S9, +Cofactors): 1040 mL/min/kg
Structure (SMILES): COc1cc(/C=C/C2=CC(=O)[C@H]3C[C@@H]2C3(C)C)cc(O)c1O [SP-8356, (1S,5R)-4-((E)-3,4-dihydroxy-5-methoxystryryl)-6,6-dimethylbicylco[3.1.1]hept-3-en-2-one]
plasma exposure [3]: Low plasma exposure
